Experimental data reported in patent publication US20080009418A1, “Selective Inhibitors” (Alchemia LTD., priority 2004, published 2008).

Experiments:
Human δ-opioid (DOP) = target: T1, Human δ-opioid (DOP) (Homo sapiens, UniProt P41143); test: Radioligand binding, human δ-opioid (DOP) membranes, FlashPlate, [3H]-Bremazocine; settings: compound at 10 μM, [3H]-Bremazocine
T1 construct: purchased Perkin Elmer Biosignal
Outline: (§1)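 Cloned human receptor membranes were coated onto FlashPlate wells and incubated with radioligand and compound (added from a 0.5 mM DMSO daughter plate) for 1 hour at room temperature in the dark. Scintillation counting gave percent inhibition, with DMSO defining total and reference ligand defining non-specific binding.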

Human κ-Opioid (KOP) = target: T2, Human κ-Opioid (KOP) (Homo sapiens, UniProt P41145); test: Radioligand binding, human κ-opioid (KOP) membranes, filtration, [3H]-Diprenorphine; settings: compound at 10 μM, [3H]-Diprenorphine
T2 construct: purchased Perkin Elmer Biosignal
Outline: (§2)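 Filtration binding on cloned human receptor membranes (1 Unit/well), [125I]-Substance P for NK1 and [3H]-Diprenorphine for KOP, 1 h at room temperature. Filters PEI-presoaked, washed with cold 50 mM Tris-HCl pH 7.4, counted by scintillation; percent inhibition calculated, reference ligand defining non-specific binding.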

Human Melanocortin (MC3) = target: T3, Human Melanocortin (MC3) (Homo sapiens, UniProt P41968); test: Radioligand binding, human melanocortin MC3 membranes, FlashPlate, [125I]-NDP-αMSH; settings: compound at 10 μM, [125I]-NDP-αMSH
T3 construct: purchased Perkin Elmer Biosignal
Outline: as §1

Human Melanocortin (MC4) = target: T4, Human Melanocortin (MC4) (Homo sapiens, UniProt P32245); test: Radioligand binding, human melanocortin MC4 membranes, FlashPlate, [125I]-NDP-αMSH; settings: compound at 10 μM, [125I]-NDP-αMSH
T4 construct: purchased Perkin Elmer Biosignal
Outline: as §1

Human melanocortin (MC5) = target: T5, Human melanocortin (MC5) (Homo sapiens, UniProt P33032); test: Radioligand binding, human melanocortin MC5 membranes, FlashPlate, [125I]-NDP-αMSH; settings: compound at 10 μM, [125I]-NDP-αMSH
T5 construct: purchased Perkin Elmer Biosignal
Outline: as §1

[1] = target: T6, Human melanin-concentrating hormone (MCH1) (Homo sapiens, UniProt Q99705); test: Radioligand binding, human melanin-concentrating hormone MCH1 membranes, FlashPlate, [125I]-S36057; settings: compound at 10 μM; for A6: inhibition of radioligand binding, human melanin-concentrating hormone (MCH1) / A6 radioligand binding, percentage inhibition: [125I]-S36057
T6 construct: purchased Perkin Elmer Biosignal
Outline: as §1

Human μ-opioid (MOP) = target: T7, Human μ-opioid (MOP) (Homo sapiens, UniProt P35372); test: Radioligand binding, human μ-opioid (MOP) membranes, FlashPlate, [3H]-Naloxone; settings: compound at 10 μM, [3H]-Naloxone
T7 construct: purchased Perkin Elmer Biosignal
Outline: as §1

Human neurokinin (NK1) = target: T8, Human neurokinin (NK1) (Homo sapiens, UniProt P25103); test: Radioligand binding, human neurokinin NK1 membranes, filtration, [125I]-Substance P; settings: compound at 10 μM, [125I]-Substance P
T8 construct: purchased Perkin Elmer Biosignal
Outline: as §2

[2] = target: T9, Human neuropeptide Y (NPY-Y1) (Homo sapiens, UniProt P25929); test: Radioligand binding, human neuropeptide Y NPY-Y1 membranes, FlashPlate, [125I]-PYY; settings: compound at 10 μM, [125I]-PYY
T9 construct: purchased Perkin Elmer Biosignal
T9 sequence (P25929 1-384): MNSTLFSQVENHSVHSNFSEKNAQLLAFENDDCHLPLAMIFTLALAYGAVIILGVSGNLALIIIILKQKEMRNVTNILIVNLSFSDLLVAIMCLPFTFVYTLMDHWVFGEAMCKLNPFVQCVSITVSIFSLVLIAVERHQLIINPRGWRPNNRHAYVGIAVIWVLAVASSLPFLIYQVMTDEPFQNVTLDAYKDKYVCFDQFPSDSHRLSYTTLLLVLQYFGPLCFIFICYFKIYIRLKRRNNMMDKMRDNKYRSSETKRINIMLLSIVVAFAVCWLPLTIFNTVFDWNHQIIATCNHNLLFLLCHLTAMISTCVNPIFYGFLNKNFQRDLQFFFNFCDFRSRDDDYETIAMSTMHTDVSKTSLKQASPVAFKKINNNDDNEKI
Outline: as §1

Human opioid (ORL1) = target: T10, Human opioid (ORL1) (Homo sapiens, UniProt P41146); test: Radioligand binding, human opioid ORL1 membranes, FlashPlate, [125I]-Nociceptin; settings: compound at 10 μM, [125I]-Nociceptin
T10 construct: purchased Perkin Elmer Biosignal
Outline: as §1

Mouse urotensin (mUR2) = target: T11, Mouse urotensin (mUR2) (Mus musculus, UniProt Q8VIH9); test: Radioligand binding, mouse urotensin mUR2 membranes, FlashPlate, [125I]-Urotensin II; settings: compound at 10 μM, [125I]-Urotensin II
T11 construct: purchased Perkin Elmer Biosignal
T11 sequence (Q8VIH9 1-385): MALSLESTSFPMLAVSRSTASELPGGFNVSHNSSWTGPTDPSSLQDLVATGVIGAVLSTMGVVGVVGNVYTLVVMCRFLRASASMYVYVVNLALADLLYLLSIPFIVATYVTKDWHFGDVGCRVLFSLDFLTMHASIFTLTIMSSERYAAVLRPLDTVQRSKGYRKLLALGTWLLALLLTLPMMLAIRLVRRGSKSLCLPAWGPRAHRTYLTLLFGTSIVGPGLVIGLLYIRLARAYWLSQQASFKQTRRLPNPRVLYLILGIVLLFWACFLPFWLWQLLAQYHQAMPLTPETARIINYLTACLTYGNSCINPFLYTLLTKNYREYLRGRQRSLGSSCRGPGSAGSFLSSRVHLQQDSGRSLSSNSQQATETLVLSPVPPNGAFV
Outline: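 Cloned mouse urotensin (mUR2) receptor membranes from Perkin Elmer Biosignal were immobilized in FlashPlate microplates using a proprietary coating. Each well got 19.5 μl buffer, then 0.5 μl of DMSO, reference ligand, or compound. Adding 5 μl of [125I]-Urotensin II, diluted to 5× final concentration in binding buffer, started binding. Plates were sealed with TopSeal-A and incubated 1 hour at room temperature in the dark. Wells were counted for 30 seconds each on a TopCount after a 60-second delay, and percentage inhibition was calculated.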

T3 sequence (P41968 whole entry): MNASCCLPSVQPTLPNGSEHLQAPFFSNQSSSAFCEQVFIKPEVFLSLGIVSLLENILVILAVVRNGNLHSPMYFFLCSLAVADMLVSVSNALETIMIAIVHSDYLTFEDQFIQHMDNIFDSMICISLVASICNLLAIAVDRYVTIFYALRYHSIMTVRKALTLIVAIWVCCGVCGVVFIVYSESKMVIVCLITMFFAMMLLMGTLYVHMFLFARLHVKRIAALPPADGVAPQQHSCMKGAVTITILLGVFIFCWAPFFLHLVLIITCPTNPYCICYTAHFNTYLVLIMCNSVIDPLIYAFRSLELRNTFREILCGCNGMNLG
T6 sequence (Q99705 whole entry): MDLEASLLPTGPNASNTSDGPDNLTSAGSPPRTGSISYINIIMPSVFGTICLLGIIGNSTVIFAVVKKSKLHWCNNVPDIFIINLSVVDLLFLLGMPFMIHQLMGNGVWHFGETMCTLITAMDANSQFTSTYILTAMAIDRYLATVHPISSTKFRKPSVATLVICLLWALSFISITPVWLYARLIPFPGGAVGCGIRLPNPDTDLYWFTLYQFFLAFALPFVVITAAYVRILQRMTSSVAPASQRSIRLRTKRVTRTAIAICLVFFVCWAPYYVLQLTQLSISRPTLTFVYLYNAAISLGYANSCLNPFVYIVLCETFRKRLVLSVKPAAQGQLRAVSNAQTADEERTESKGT
T10 sequence (P41146 whole entry): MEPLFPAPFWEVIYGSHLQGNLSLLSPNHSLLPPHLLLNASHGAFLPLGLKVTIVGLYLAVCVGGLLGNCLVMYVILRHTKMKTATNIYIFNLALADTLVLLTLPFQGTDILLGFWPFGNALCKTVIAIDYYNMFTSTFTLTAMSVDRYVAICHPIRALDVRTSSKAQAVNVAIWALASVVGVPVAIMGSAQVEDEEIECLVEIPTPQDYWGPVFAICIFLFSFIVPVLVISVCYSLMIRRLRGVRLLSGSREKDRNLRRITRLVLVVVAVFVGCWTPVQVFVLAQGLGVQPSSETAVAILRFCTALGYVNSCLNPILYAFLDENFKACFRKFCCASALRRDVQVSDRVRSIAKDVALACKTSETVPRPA
T4 sequence (P32245 whole entry): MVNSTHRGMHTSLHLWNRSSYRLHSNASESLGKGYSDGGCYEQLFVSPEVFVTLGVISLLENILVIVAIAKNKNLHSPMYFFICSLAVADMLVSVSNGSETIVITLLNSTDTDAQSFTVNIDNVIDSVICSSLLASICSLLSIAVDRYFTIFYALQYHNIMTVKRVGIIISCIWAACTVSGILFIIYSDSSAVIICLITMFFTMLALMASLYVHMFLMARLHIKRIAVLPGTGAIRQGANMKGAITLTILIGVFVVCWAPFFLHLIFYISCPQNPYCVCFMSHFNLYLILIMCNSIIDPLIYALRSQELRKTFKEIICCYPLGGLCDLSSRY
T2 sequence (P41145 whole entry): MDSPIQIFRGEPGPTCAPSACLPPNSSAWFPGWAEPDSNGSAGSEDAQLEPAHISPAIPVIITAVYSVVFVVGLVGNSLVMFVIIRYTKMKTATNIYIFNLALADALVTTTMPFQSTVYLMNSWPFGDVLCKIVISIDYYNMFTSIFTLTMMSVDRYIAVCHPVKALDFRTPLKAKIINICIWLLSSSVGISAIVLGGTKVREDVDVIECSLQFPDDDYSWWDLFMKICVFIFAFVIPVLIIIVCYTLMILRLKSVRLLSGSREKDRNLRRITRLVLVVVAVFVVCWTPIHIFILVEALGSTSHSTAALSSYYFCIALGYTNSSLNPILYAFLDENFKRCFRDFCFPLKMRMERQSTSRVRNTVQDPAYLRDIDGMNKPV
T8 sequence (P25103 whole entry): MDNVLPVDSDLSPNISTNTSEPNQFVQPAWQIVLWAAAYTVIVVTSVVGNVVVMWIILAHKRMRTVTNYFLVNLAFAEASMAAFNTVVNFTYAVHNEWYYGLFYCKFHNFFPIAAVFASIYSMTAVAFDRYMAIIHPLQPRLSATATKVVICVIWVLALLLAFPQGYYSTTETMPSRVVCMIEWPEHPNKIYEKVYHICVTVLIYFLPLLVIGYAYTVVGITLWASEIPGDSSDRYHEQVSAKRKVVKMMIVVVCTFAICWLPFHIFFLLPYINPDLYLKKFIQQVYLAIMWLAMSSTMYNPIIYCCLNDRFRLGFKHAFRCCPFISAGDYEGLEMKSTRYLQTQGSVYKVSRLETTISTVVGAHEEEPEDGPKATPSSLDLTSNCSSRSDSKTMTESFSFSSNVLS
T5 sequence (P33032 whole entry): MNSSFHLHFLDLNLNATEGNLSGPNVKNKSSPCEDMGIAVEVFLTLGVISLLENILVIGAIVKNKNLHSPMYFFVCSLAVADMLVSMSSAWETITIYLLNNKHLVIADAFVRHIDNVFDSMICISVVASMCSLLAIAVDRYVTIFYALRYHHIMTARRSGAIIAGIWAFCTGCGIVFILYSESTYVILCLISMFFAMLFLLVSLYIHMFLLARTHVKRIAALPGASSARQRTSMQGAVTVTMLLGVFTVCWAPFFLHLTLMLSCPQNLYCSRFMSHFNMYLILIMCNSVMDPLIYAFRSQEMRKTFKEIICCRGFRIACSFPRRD
T7 sequence (P35372 whole entry): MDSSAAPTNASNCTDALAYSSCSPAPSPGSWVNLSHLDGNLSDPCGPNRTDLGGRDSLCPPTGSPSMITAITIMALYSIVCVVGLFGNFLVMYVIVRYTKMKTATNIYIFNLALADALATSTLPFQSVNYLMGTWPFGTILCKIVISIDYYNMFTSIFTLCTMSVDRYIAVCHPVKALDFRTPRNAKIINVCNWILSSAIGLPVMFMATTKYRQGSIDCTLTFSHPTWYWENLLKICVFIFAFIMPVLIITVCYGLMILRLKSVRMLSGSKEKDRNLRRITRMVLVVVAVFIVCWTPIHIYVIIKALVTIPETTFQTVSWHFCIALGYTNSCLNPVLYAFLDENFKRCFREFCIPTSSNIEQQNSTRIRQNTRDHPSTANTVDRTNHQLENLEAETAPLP
T1 sequence (P41143 whole entry): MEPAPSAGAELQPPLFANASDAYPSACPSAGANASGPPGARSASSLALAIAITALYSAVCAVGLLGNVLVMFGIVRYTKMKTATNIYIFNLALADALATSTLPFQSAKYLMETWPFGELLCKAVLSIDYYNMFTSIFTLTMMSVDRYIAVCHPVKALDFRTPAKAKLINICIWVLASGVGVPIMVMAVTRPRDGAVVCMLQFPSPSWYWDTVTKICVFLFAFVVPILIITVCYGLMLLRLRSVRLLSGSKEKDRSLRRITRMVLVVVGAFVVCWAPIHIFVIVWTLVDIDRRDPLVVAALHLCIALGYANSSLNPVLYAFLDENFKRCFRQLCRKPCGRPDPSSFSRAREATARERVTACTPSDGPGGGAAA

Row | Compound | A1: inhibition of radioligand binding, human δ-opioid (DOP) (Human δ-opioid (DOP)) | A2: inhibition of radioligand binding, human κ-opioid (KOP) (Human κ-Opioid (KOP)) | A3: inhibition of radioligand binding, human melanocortin (MC3) (Human Melanocortin (MC3)) | A4: inhibition of radioligand binding, human melanocortin (MC4) (Human Melanocortin (MC4)) | A5: inhibition of radioligand binding, human melanocortin (MC5) (Human melanocortin (MC5)) | A6: inhibition of radioligand binding, human melanin-concentrating hormone (MCH1) [1] | A8: inhibition of radioligand binding, human neurokinin (NK1) (Human neurokinin (NK1)) | A10: inhibition of radioligand binding, human opioid (ORL1) (Human opioid (ORL1)) | A11: inhibition of radioligand binding, mouse urotensin (mUR2) (Mouse urotensin (mUR2)) | A7: inhibition of radioligand binding, human μ-opioid (MOP) (Human μ-opioid (MOP)) | A9: inhibition of radioligand binding, human neuropeptide Y (NPY-Y1) [2] | A1 radioligand binding, percentage inhibition (Human δ-opioid (DOP)) | A2 radioligand binding, percentage inhibition (Human κ-Opioid (KOP)) | A3 radioligand binding, percentage inhibition (Human Melanocortin (MC3)) | A4 radioligand binding, percentage inhibition (Human Melanocortin (MC4)) | A5 radioligand binding, percentage inhibition (Human melanocortin (MC5)) | A6 radioligand binding, percentage inhibition [1] | A7 radioligand binding, percentage inhibition (Human μ-opioid (MOP)) | A8 radioligand binding, percentage inhibition (Human neurokinin (NK1)) | A9 radioligand binding, percentage inhibition [2] | further results
1 | COCC1OC(OCc2ccccc2)C(NC(=O)CCCN)C(OCc2ccc3ccccc3c2)C1O (stereo not drawn) [compound 192] |  |  |  |  |  |  |  |  |  |  |  |  |  |  |  |  |  |  |  |  | A1: inhibition of radioligand binding (Human δ-opioid (DOP); FlashPlate): − (“−” indicates less than 50% inhibition at 10 μM); A2: inhibition of radioligand binding (Human κ-Opioid (KOP); filtration): − (“−” indicates less than 50% inhibition at 10 μM); A3: inhibition of radioligand binding (Human Melanocortin (MC3); FlashPlate): − (“−” indicates less than 50% inhibition at 10 μM); A4: inhibition of radioligand binding (Human Melanocortin (MC4); FlashPlate): − (“−” indicates less than 50% inhibition at 10 μM); A5: inhibition of radioligand binding (Human melanocortin (MC5); FlashPlate): + (“+” indicates greater than 50% inhibition at 10 μM); A6: inhibition of radioligand binding ([1]; [125I]-S36057, FlashPlate): − (“−” indicates less than 50% inhibition at 10 μM); A7: inhibition of radioligand binding (Human μ-opioid (MOP); FlashPlate): − (“−” indicates less than 50% inhibition at 10 μM); A8: inhibition of radioligand binding (Human neurokinin (NK1); filtration): + (“+” indicates greater than 50% inhibition at 10 μM); A9: inhibition of radioligand binding ([2]; FlashPlate): − (“−” indicates less than 50% inhibition at 10 μM); A10: inhibition of radioligand binding (Human opioid (ORL1); FlashPlate): − (“−” indicates less than 50% inhibition at 10 μM); A11: inhibition of radioligand binding (Mouse urotensin (mUR2); FlashPlate): − (“−” indicates less than 50% inhibition at 10 μM)
2 | N=C(N)NCCC(=O)N[C@H]1C(OCc2ccc(Cl)cc2)O[C@H](COCc2ccc3ccccc3c2)[C@@H](O)[C@@H]1OCc1ccc(Cl)cc1 (stereo partly drawn) [compound 523] | − (“−” indicates less than 50% inhibition at 10 μM) | + (“+” indicates greater than 50% inhibition at 10 μM) | + (“+” indicates greater than 50% inhibition at 10 μM) | + (“+” indicates greater than 50% inhibition at 10 μM) | + (“+” indicates greater than 50% inhibition at 10 μM) | + (“+” indicates greater than 50% inhibition at 10 μM) | + (“+” indicates greater than 50% inhibition at 10 μM) | + (“+” indicates greater than 50% inhibition at 10 μM) | − (“−” indicates less than 50% inhibition at 10 μM) |  |  |  |  |  |  |  |  |  |  |  | A7: inhibition of radioligand binding, human μ-opioid (MOP) (Human μ-opioid (MOP); 10 µM): + (“+” indicates greater than 50% inhibition at 10 μM); A9: inhibition of radioligand binding, human neuropeptide Y (NPY-Y1) ([2]; 10 µM): − (“−” indicates less than 50% inhibition at 10 μM)
3 | COC[C@H]1OC(OCc2ccc3ccccc3c2)[C@H](NC(=O)CCCNC(=N)N)[C@@H](OCc2ccc3ccccc3c2)[C@@H]1O (stereo partly drawn) [compound 339] | − (“−” indicates less than 50% inhibition at 10 μM) | − (“−” indicates less than 50% inhibition at 10 μM) | − (“−” indicates less than 50% inhibition at 10 μM) | + (“+” indicates greater than 50% inhibition at 10 μM) | + (“+” indicates greater than 50% inhibition at 10 μM) | + (“+” indicates greater than 50% inhibition at 10 μM) | + (“+” indicates greater than 50% inhibition at 10 μM) | − (“−” indicates less than 50% inhibition at 10 μM) | − (“−” indicates less than 50% inhibition at 10 μM) | + (“+” indicates greater than 50% inhibition at 10 μM) | − (“−” indicates less than 50% inhibition at 10 μM) |  |  |  |  |  |  |  |  |  | 
4 | CO[C@H]1[C@H](O)[C@@H](COCc2ccccc2)OC(OCc2ccc(Cl)cc2)[C@@H]1NC(=O)CCCN (stereo partly drawn) [compound 103] |  |  |  |  |  |  |  |  |  |  |  | − (“−” indicates less than 50% inhibition at 10 μM) | − (“−” indicates less than 50% inhibition at 10 μM) | − (“−” indicates less than 50% inhibition at 10 μM) | − (“−” indicates less than 50% inhibition at 10 μM) | − (“−” indicates less than 50% inhibition at 10 μM) | − (“−” indicates less than 50% inhibition at 10 μM) | − (“−” indicates less than 50% inhibition at 10 μM) | + (“+” indicates greater than 50% inhibition at 10 μM) | − (“−” indicates less than 50% inhibition at 10 μM) | A10 radioligand binding, percentage inhibition (Human opioid (ORL1)): − (“−” indicates less than 50% inhibition at 10 μM); A11 radioligand binding, percentage inhibition (Mouse urotensin (mUR2)): − (“−” indicates less than 50% inhibition at 10 μM)
5 | CO[C@H]1[C@H](O)[C@@H](COCc2ccc(Cl)cc2)OC(OCCc2ccccc2)[C@@H]1NC(=O)CCCNC(=N)N (stereo partly drawn) [compound 122] |  |  |  |  |  |  |  |  |  |  |  | − (“−” indicates less than 50% inhibition at 10 μM) | − (“−” indicates less than 50% inhibition at 10 μM) | − (“−” indicates less than 50% inhibition at 10 μM) | + (“+” indicates greater than 50% inhibition at 10 μM) | + (“+” indicates greater than 50% inhibition at 10 μM) | − (“−” indicates less than 50% inhibition at 10 μM) | − (“−” indicates less than 50% inhibition at 10 μM) | + (“+” indicates greater than 50% inhibition at 10 μM) | − (“−” indicates less than 50% inhibition at 10 μM) | A10 radioligand binding, percentage inhibition (Human opioid (ORL1)): − (“−” indicates less than 50% inhibition at 10 μM); A11 radioligand binding, percentage inhibition (Mouse urotensin (mUR2)): − (“−” indicates less than 50% inhibition at 10 μM)
6 | CSC1O[C@H](COCc2ccc3ccccc3c2)[C@@H](O)[C@@H](OCc2ccc(-c3ccccc3)cc2)[C@H]1NC(=O)CNC(=N)N (stereo partly drawn) [compound 296] | − (“−” indicates less than 50% inhibition at 10 μM) | − (“−” indicates less than 50% inhibition at 10 μM) | − (“−” indicates less than 50% inhibition at 10 μM) | − (“−” indicates less than 50% inhibition at 10 μM) | − (“−” indicates less than 50% inhibition at 10 μM) | − (“−” indicates less than 50% inhibition at 10 μM) | + (“+” indicates greater than 50% inhibition at 10 μM) | − (“−” indicates less than 50% inhibition at 10 μM) | − (“−” indicates less than 50% inhibition at 10 μM) | − (“−” indicates less than 50% inhibition at 10 μM) | − (“−” indicates less than 50% inhibition at 10 μM) |  |  |  |  |  |  |  |  |  | 
